According to ChEMBL document CHEMBL5291721, “A preclinical secondary pharmacology resource illuminates target-adverse drug reaction associations of marketed drugs” (Nat Commun, 2023):

How the values were obtained:
Adenosine receptor A1 = biological target: T1, Adenosine receptor A1 (Homo sapiens, UniProt P30542)
T1 sequence (P30542 whole entry): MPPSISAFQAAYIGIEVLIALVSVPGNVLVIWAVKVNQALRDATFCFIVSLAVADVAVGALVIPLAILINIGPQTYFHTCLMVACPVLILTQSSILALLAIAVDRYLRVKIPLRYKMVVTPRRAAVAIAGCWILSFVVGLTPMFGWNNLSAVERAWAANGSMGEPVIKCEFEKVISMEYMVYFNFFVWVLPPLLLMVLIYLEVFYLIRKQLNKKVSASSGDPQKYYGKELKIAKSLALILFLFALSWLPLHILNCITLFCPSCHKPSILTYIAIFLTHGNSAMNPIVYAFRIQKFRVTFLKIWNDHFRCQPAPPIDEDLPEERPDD

[1] = biological target: Beta-2 adrenergic receptor (Homo sapiens, UniProt P07550)
[2] = biological target: T2, 5-hydroxytryptamine receptor 1A (Homo sapiens, UniProt P08908)
T2 sequence (P08908 whole entry): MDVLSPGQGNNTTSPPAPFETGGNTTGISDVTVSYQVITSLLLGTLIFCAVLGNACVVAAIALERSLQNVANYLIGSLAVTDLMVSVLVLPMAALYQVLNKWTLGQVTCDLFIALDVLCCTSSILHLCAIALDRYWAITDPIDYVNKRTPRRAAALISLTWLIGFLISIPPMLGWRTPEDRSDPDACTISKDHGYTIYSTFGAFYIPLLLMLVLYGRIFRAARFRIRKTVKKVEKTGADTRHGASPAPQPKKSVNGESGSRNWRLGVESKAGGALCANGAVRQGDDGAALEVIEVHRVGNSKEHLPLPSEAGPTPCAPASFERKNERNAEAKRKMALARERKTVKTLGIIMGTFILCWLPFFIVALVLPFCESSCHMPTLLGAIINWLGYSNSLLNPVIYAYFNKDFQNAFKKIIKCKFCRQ

[3] = biological target: Muscarinic acetylcholine receptor M3 (Homo sapiens, UniProt P20309)
[4] = biological target: T2, 5-hydroxytryptamine receptor 1A; format: functional, cell-based
[5] = biological target: Growth hormone secretagogue receptor type 1 (Homo sapiens, UniProt Q92847)
Vasopressin V2 receptor = Vasopressin V2 receptor (Homo sapiens, UniProt P30518)
Estrogen receptor = biological target: T3, Estrogen receptor (Homo sapiens, UniProt P03372)
T3 sequence (P03372 whole entry): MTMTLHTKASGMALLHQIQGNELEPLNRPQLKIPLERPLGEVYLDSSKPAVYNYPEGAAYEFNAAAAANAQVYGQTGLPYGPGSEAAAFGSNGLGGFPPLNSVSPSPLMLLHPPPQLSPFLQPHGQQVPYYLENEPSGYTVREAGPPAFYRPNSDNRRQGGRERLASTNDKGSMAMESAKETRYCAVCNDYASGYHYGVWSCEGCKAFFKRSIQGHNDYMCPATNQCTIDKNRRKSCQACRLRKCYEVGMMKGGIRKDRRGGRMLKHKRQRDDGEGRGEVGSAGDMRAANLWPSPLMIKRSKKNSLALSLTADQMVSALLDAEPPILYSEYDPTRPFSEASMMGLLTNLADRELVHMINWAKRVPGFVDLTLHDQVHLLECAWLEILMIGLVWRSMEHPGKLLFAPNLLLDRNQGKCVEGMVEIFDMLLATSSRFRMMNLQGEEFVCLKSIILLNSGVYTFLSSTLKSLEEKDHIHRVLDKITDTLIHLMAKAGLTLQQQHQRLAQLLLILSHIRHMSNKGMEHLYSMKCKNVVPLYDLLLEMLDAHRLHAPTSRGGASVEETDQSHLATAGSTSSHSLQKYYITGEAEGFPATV

Motilin receptor = Motilin receptor (Homo sapiens, UniProt O43193)
B1 bradykinin receptor = biological target: T4, B1 bradykinin receptor (Homo sapiens, UniProt P46663)
T4 sequence (P46663 whole entry): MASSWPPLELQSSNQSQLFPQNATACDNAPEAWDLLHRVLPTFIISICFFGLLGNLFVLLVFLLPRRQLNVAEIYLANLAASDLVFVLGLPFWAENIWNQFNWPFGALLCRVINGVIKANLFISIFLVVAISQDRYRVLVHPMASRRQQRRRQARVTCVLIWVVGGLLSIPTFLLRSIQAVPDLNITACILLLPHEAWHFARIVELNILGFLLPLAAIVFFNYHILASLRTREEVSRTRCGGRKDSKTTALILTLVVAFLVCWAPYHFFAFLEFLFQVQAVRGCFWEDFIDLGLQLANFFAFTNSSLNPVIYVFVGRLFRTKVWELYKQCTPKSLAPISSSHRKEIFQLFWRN

D(1A) dopamine receptor = D(1A) dopamine receptor (Homo sapiens, UniProt P21728)
Note: assay procedure not described here.

Beta-2 adrenergic receptor, sequence (P07550 whole entry): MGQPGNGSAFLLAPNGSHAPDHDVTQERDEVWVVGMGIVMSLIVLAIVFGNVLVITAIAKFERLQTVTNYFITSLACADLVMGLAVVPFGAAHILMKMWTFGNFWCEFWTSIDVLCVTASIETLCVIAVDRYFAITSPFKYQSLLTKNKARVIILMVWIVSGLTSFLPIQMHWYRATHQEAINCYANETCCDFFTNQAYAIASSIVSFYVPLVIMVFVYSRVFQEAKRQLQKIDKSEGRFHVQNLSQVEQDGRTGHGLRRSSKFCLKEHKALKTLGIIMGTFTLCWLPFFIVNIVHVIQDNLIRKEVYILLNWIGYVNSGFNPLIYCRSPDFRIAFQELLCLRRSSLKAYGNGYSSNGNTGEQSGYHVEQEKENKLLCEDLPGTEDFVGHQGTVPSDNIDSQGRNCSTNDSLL
Muscarinic acetylcholine receptor M3, sequence (P20309 whole entry): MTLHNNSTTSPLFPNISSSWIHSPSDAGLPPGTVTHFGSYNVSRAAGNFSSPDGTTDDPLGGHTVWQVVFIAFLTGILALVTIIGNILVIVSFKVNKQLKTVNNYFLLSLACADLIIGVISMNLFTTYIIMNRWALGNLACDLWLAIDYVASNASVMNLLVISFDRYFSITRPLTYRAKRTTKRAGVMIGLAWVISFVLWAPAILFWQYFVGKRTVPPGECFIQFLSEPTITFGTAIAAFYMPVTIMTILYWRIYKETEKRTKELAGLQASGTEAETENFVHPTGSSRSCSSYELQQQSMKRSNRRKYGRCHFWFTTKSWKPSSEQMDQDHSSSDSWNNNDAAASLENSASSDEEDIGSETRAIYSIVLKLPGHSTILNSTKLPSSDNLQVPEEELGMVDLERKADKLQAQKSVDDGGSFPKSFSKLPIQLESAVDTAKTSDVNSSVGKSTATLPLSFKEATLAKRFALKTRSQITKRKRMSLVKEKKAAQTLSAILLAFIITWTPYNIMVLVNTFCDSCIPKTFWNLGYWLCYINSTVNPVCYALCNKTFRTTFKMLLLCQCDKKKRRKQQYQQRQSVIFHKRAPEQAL
Motilin receptor, sequence (O43193 whole entry): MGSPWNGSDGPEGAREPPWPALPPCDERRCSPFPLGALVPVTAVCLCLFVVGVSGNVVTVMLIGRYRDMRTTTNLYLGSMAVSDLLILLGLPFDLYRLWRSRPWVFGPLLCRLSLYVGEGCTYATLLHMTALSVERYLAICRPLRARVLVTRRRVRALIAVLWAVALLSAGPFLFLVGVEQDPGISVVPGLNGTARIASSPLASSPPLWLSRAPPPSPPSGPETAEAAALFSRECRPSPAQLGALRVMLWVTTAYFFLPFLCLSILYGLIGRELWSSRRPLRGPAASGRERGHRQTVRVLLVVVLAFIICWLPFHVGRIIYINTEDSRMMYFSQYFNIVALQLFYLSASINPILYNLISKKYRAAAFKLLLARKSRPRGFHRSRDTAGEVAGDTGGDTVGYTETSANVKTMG
Growth hormone secretagogue receptor type 1, sequence (Q92847 whole entry): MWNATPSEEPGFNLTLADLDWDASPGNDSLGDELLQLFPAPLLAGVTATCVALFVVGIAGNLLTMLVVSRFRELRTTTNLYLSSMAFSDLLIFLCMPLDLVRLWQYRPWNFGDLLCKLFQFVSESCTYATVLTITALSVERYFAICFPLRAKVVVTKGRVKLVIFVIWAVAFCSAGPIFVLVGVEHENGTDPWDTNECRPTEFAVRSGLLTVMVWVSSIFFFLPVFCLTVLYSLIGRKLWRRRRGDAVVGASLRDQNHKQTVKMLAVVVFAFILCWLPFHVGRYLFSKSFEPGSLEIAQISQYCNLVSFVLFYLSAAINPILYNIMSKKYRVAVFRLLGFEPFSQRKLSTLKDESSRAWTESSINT
Vasopressin V2 receptor, sequence (P30518 whole entry): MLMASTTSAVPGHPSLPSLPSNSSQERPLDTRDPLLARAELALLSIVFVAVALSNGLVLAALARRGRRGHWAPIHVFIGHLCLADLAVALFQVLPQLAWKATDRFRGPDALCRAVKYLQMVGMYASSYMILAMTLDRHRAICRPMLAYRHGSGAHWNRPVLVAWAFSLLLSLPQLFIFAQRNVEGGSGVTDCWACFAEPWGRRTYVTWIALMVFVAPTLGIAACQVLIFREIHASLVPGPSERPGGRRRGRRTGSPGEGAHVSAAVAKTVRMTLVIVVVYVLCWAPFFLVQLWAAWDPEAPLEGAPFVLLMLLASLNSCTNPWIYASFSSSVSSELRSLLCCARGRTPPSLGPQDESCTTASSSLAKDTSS
D(1A) dopamine receptor, sequence (P21728 whole entry): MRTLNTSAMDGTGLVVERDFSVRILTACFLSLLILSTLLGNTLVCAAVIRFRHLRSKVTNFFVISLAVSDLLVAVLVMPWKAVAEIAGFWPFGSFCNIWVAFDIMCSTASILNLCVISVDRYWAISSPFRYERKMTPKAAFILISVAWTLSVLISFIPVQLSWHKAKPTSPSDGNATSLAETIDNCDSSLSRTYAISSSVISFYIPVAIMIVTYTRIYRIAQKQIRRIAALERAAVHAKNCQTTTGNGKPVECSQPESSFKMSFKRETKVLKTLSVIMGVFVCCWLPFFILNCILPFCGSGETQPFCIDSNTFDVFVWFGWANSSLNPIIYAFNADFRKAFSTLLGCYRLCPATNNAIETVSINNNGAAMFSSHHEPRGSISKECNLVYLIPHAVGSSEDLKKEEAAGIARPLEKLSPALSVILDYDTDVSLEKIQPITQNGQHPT

| Compound | AC50 (Adenosine receptor A1) [µM] | AC50 [1] [µM] | AC50 [2] [µM] | AC50 [3] [µM] | AC50 [4] [µM] | AC50 [5] [µM] | AC50 (Vasopressin V2 receptor) [µM] | AC50 (Estrogen receptor) [µM] | AC50 (Motilin receptor) [µM] | AC50 (B1 bradykinin receptor) [µM] | AC50 (D(1A) dopamine receptor) [µM] |
| --- | --- | --- | --- | --- | --- | --- | --- | --- | --- | --- | --- |
| O=C(O)c1cccc(-c2noc(-c3ccccc3F)n2)c1 | > 30 | > 30 | > 10 | – | – | – | – | – | – | – | – |
| CO/N=C(\C(=O)N[C@@H]1C(=O)N2C(C(=O)OCOC(=O)C(C)(C)C)=C(C)CS[C@H]12)c1csc(N)n1 | > 30 | – | – | > 30 | > 30 | – | – | – | – | – | – |
| O=C(Cn1ccnc1[N+](=O)[O-])NCc1ccccc1 [BENZNIDAZOLE] | > 30 | > 30 | – | > 30 | – | > 30 | > 30 | > 30 | > 30 | – | – |
| COCC1=C(C(=O)OC(C)OC(=O)OC(C)C)N2C(=O)[C@@H](NC(=O)/C(=N\OC)c3csc(N)n3)[C@H]2SC1 (stereo partly specified) [CEFPODOXIME PROXETIL] | > 30 | – | – | > 30 | > 30 | – | – | – | – | – | – |
| NS(=O)(=O)c1cc2c(cc1Cl)NC(CC1CCCC1)NS2(=O)=O (stereo unspecified) [CYCLOPENTHIAZIDE] | > 30 | – | – | > 30 | > 30 | – | – | – | – | – | – |
| N/N=c1/cc2c(n[nH]1)CCN(C(=O)c1ccccc1)C2 [ENDRALAZINE] | > 30 | – | – | > 30 | > 30 | – | – | – | – | – | – |
| CN1C(=O)N(C)C2C1N(C)C(=O)N2C (stereo unspecified) [MEBICAR] | > 30 | – | – | > 30 | > 30 | – | – | – | – | – | – |
| CC(=O)O[C@]1(C(C)=O)CC[C@H]2[C@@H]3C[C@H](C)C4=CC(=O)CC[C@]4(C)[C@H]3CC[C@@]21C [MEDROXYPROGESTERONE ACETATE] | > 30 | – | – | – | – | > 30 | > 30 | – | > 30 | – | – |
| Nc1ccc(/N=N/c2ccccc2)c(N)n1 [PHENAZOPYRIDINE] | 13.1 | – | – | 3.6 | – | – | – | – | – | – | – |
| O=C(O)CCn1c2c(c3ccccc31)C[C@H](NS(=O)(=O)c1ccc(F)cc1)CC2 [RAMATROBAN] | > 30 | > 30 | – | > 30 | > 10 | > 30 | > 30 | > 30 | > 30 | > 10 | 6.01 |
